T1: OATP1B1 (Homo sapiens, UniProt Q9Y6L6)
T1 sequence (Q9Y6L6 1-691): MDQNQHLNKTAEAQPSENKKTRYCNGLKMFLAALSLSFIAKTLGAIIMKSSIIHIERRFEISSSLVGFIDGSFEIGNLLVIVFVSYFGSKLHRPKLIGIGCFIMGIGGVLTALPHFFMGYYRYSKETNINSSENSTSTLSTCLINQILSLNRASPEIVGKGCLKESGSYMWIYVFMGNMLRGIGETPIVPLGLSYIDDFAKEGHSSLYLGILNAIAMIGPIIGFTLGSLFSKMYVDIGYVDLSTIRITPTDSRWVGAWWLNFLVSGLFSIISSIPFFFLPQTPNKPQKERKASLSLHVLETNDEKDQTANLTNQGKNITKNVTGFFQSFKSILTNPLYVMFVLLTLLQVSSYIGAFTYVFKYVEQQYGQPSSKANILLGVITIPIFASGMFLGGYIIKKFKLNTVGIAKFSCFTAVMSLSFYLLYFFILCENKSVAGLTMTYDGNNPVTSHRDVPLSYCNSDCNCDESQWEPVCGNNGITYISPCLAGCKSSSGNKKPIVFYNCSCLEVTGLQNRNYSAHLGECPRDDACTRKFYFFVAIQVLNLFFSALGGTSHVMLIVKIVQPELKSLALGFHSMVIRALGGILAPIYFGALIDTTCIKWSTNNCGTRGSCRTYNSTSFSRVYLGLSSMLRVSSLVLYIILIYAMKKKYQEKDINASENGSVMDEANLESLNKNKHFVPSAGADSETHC

T2: OATP1B3 (Homo sapiens, UniProt Q9NPD5)
T2 sequence (Q9NPD5 1-702): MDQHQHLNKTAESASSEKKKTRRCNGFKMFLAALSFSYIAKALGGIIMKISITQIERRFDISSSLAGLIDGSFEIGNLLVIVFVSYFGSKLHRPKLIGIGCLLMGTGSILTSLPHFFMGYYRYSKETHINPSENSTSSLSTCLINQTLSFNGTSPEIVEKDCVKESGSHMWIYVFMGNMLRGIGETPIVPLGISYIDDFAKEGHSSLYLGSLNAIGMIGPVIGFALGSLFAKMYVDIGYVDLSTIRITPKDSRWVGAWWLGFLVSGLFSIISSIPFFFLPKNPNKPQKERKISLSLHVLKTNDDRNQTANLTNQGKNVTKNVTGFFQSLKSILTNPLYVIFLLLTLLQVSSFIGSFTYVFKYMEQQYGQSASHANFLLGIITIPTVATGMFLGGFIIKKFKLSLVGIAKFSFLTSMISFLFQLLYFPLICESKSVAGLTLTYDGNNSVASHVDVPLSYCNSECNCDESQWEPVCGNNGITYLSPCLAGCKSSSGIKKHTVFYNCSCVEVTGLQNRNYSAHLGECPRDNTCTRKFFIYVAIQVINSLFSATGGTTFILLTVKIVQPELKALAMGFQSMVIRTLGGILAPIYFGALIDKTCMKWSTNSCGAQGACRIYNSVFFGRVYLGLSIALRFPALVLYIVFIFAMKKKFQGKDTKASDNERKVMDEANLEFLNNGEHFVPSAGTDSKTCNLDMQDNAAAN

B1: OATP1B1 (Homo sapiens) (protein)
chain: T1 sequence (Q9Y6L6 1-691)

Columns and labels:
Assay in all cases: flow cytometry uptake in Sf9 cells expressing the transporter
OATP1B1 = target: T1, OATP1B1; format: cell-based
OATP1B3 = target: T2, OATP1B3; format: cell-based
[1] = substrate: O=C1OC2(c3ccc(O)cc3Oc3cc(O)ccc32)c2ccccc21; format: cell-based, Homo sapiens

Molecule	Km (OATP1B1)	Km (OATP1B3)	Km [1]
fluorescein-methotrexate [Fl-MTX]	230 nM	0.53 µM	–
O=C1OC2(c3ccc(O)cc3Oc3cc(O)ccc32)c2ccccc21 [Na-Fluo, sodium fluorescein]	–	38.6 µM	–
B1	–	–	25.73 µM

Source: article PMC4959548 (Biochemical pharmacology, 2015)
